Measurements published in patent US20060106099A1, “Novel inhibitors of ubiquitin isopeptidases” (priority 2002, published 2006).
Where two headings read alike, the source gives them in different places.

Columns and labels:
[1] = system: ubiquitin isopeptidases; experiment: In vivo isopeptidase activity after treatment of RKO cells, Ub-PEST; assay type: cell-based, human; settings: 6 h
Experimental: Isopeptidase Assay. It was hypothesized that the punaglandins would inhibit ubiquitin-isopeptidase activity of the proteasome pathway as does the prostaglandin, Δ^12-PGJ2 (1), but with greater potency because of the chlorinated C-10. To validate this theory, cellular isopeptidase enzymatic activity was measured in vitro after treatment with individual punaglandins, PNG 2 (6), PNG 3 (7), and Z-PNG 4 (9) and in vivo after individual treatment with PNG 4 (8) and PNG 6 (10). This activity was determined utilizing the simple isopeptidase substrate, ubiquitin-PEST (Ub-PEST), a full/length ubiquitin (Ub) molecule fused with an 18-amino acid C-terminal peptide extension that most isopeptidases use as a substrate. The polypeptide extension contains regions rich in Pro (P), Glu (E), Ser (S), and Thr (T) residues called PEST motifs that are responsible for rapid degradation of these and other unstable proteins. Ub isopeptidases specifically cleave this peptide extension, yielding free, full-length Ub. Both the fused Ub-PEST (10.5 kDa) and the cleaved, free Ub (8.5 kDa) can be observed via immunochemical detection.
In vivo Isopeptidase Activity. To investigate whether punaglandins can inhibit isopeptidase activity in vivo, isopeptidase activity was analyzed after punaglandin treatment of RKO cells. PNG 4 (8) and PNG 6 (10) were selected for in vivo investigation because they differ only in enone functionality, where (8) is a dienone and (10) an enone. RKO cells were incubated with 1 μM, 4 μM, or 7 μM of PNG 4 (8) and PNG 6 (10). […] As a positive control, cells were treated with a known isopeptidase inhibitor, shikoccin (SK). After 6 h drug treatment, cells were lysed and protein concentration adjusted to 0.3 mg/mL per sample. Each sample was subsequently incubated with 50 μg/mL of Ub-PEST. The reaction was terminated after 20 min and the respective amounts of Ub-PEST (10 kDa) and free Ub product (8.5 kDa) were determined by SDS-PAGE fractionation.

[2] = system: RKO cells
[3] = system: HCT 116 −/− cells; experiment: MTT cell viability assay, HCT 116 p53 −/− cells; settings: read-out: Cytotoxic Potency (EC50) HCT −/−; 48 h, MTT
[4] = system: cell lines with mutant/deleted p53; settings: mean of 41-42 cell lines with mutant/deleted p53; read-out: Mutant p53 Mean LC50; cited from earlier work
[5] = system: cell lines with Wild type p53; settings: cited from earlier work
[6] = system: ubiquitin isopeptidases; experiment: In vitro isopeptidase activity in HCT 116 lysates, Ub-PEST; assay type: biochemical, human; settings: HCT 116 lysates, 45 min
[7] = system: HCT 116 −/− cells
[8] = system: ubiquitin isopeptidases; experiment: Reversibility of isopeptidase inhibition in cell lysates, z-LRGG-AMC, dialysis; assay type: biochemical; settings: 100 μM
Experimental: FIG. 5 Reversibility of isopeptidase inhibition by Δ12-PGJ2. Cell lysates (0.5 mg/mL) were treated with DMSO vehicle or 100 μM .12-PGJ2 for 1 hour,25° C. The treated lysates were divided into two aliquots. One aliquot was immediately analyzed for isopeptidase activity by incubating with z-LRGG-AMC as previously described (Pre-Dialysis). The second aliquot was dialyzed by washing with 3 volumes of assay buffer on a centricon YM-30 column, followed by analysis for isopeptidase activity by incubating with z-LRGG-AMC (Post-Dialysis).
Δ-12-PGJ2 irreversibility was determined. Cell lysates were incubated with vehicle or 100 μM test compound and isopeptidase activity was measured fluorimetrically. 500 μl portion of each sample were dialyzed through a Centricon filter with a molecular weight cut-off of […]. After washing with 3 volumes of assay buffer, isopeptidase activity was measured in the […].

[9] = in vivo; cited from earlier work
[10] = system: HCT 116 +/+ cells; settings: Mullally et al., University of Utah, 2003; read-out: EC50 in competent HCT 116 cells; cited from earlier work
[11] = system: HCT 116 +/+ cells
[12] = cited from earlier work
[13] = system: ubiquitin isopeptidases; settings: cells treated for 12 h; cited from earlier work

| SMILES | effect on Ub-PEST degradation, control substances [1] | EC50 [2] [µM] | EC50 [3] [µM] | CC50 [4] [µM] | p53 dependence in NCI 60 cell line cancer screening data ([5]; analysis according to O'Connor et al., 1997) | LC50 ([5]; mean of 18 cell lines with wild type p53) [µM] | concentration at which inhibition of Ub-PEST degradation is initially observed [6] [µM] | concentration of complete (total) inhibition of Ub-PEST degradation [6] [µM] | EC50 [7] [µM] | isopeptidase inhibition in treated cell lysates, pre-dialysis ([8]; 1 hour, 25° C.) | reversibility of isopeptidase inhibition, post-dialysis ([8]; dialysis with 3 volumes of assay buffer) | cross-resistance with cisplatin and adriamycin [9] | EC50 [10] [µM] | EC50 [11] [µM] | t1/2 of metabolism to an inactive compound in serum [12] [min] | concentration showing inhibition of Ub-PEST degradation, previous in vivo studies [13] [µM] |
| --- | --- | --- | --- | --- | --- | --- | --- | --- | --- | --- | --- | --- | --- | --- | --- | --- |
| C=C1C(=O)C2=CC1CCC(=O)C1(C)CCC(OC(C)=O)C(C)(C)C1CC2O (stereo not shown) [NSC-302979, shikoccin] | expected inhibition of Ub-PEST degradation | 1.8 ± 0.1 | 3.2 ± 0.2 | 66 | act independently of p53 | 54 | – | – | – | – | – | – | – | – | – | – |
| CCCCC[C@H](O)C/C=C1/C(=O)C=C[C@@H]1C/C=C\CCCC(=O)O [Δ12-PGJ2, Δ12-prostaglandin J2] | – | – | – | – | – | – | 60 | 200 | 4.1 ± 0.1 | inhibited isopeptidase activity in treated cell lysates | could not be reversed by dialysis | little cross-resistance with cisplatin and adriamycin | 3.6 | 3.6 ± 0.3 | < 5 | 60 |
